These results are taken from US20260242419A1, “A CYCLIC PEPTIDE FOR TRAPPING INTERLEUKIN-1 BETA” (Merck Sharp & Dohme LLC, priority 2023, published 2026).

The assay deals with T1, IL-1β (Homo sapiens, UniProt P01584).
T1 construct: purchased BioLegend 579404
Nature of the assay: IL-6 assay in MRC5 cells: inhibition of IL-1β induced IL-6 secretion (AlphaLISA). Type of assay: cell-based. The conditions noted are these: inhibition of IL-1β induced IL-6 secretion in MRC5 cells; compound pre-incubated 1 hour with recombinant human IL-1β; read-out: MRC5 IC50. An outline of the steps:
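Compound was pre-incubated 1 h at ambient temperature with recombinant human IL-1β at 2λ EC80 before adding human lung fibroblast MRC5 cells (3000/well) in EMEM with 0.025% BSA. After overnight culture at 37 °C, 5% CO2, secreted IL-6 in conditioned medium was measured by AlphaLISA; IC50 from 4-parameter logistic fits.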
On the technique in general: Bead proximity is the source of the signal in Alpha formats.

Starred links: 1 amine or outer side, 2 acyl side, 3 side chain; linkers in the order of their positions; H or OH if unused. Non-standard residues stand in square brackets, D forms with d. Residues, ends and D or L forms follow the SMILES beside them. dPro(4R-(4-pyridylmethyl)) = O=C(O)[C@H]1C[C@@H](Cc2ccncc2)CN1; Trp(βS-Me,4-F) = C[C@@H](c1c[nH]c2cccc(F)c12)[C@H](N)C(=O)O; Bip(4'-COOH) = N[C@@H](Cc1ccc(-c2ccc(C(=O)O)cc2)cc1)C(=O)O; X4 = O=C([C@H]1[C@@H](Cc2ccncc2)CCN1[*:1])[*:2]; Ala(pyrimidin-5-yl) = N[C@@H](Cc1cncnc1)C(=O)O; Phe(4-COOH) = N[C@@H](Cc1ccc(C(=O)O)cc1)C(=O)O; Bip = N[C@@H](Cc1ccc(-c2ccccc2)cc1)C(=O)O; Pro(cis-4-F) = O=C(O)[C@@H]1C[C@H](F)CN1; dPhe(4-F) = N[C@H](Cc1ccc(F)cc1)C(=O)O; Dap(CONH2) = NC(=O)NC[C@H](N)C(=O)O; d(αMeD) = C[C@@](N)(CC(=O)O)C(=O)O; 4Pal = N[C@@H](Cc1ccncc1)C(=O)O; d3Pal = N[C@H](Cc1cccnc1)C(=O)O; dCha = N[C@H](CC1CCCCC1)C(=O)O; NMeDab = CN[C@@H](CCN)C(=O)O; dCba = N[C@H](CC1CCC1)C(=O)O; dOrn = NCCC[C@@H](N)C(=O)O; dDap = NC[C@@H](N)C(=O)O; Dab = NCC[C@H](N)C(=O)O; Aib = CC(C)(N)C(=O)O

T1 sequence (P01584 117-269): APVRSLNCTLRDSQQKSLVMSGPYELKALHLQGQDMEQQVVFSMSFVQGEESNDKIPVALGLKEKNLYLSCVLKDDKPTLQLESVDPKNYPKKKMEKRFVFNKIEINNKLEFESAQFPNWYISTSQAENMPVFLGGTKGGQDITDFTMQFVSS

A word on the IC50: it is the concentration that gives 50% inhibition. Take `C[C@@H](c1c[nH]c2cccc(F)c12)[C@@H]1NC(=O)[C@@H]2C[C@H](F)CN2C(=O)CNC(=O)[C@H](Cc2ccc(C(=O)O)cc2)NC(=O)[C@H](Cc2ccncc2)NC(=O)[C@H](Cc2ccc(-c3ccc(C(=O)O)cc3)cc2)NC(=O)[C@H]2[C@@H](Cc3ccncc3)CCN2C(=O)CNC(=O)[C@H](CCN)NC(=O)[C@H](CCC(N)=O)NC(=O)[C@@H](CC(=O)O)NC(=O)C(C)(C)NC(=O)[C@H](Cc2c[nH]c3ccccc23)NC(=O)[C@H](CO)NC(=O)C(C)(C)NC1=O` [Example 234] (cyclo([Bip(4'-COOH)][4Pal][Phe(4-COOH)]G[Pro(cis-4-F)][Trp(βS-Me,4-F)][Aib]SW[Aib][dD]Q[Dab]G[X4])): the IC50 was determined as 0.024 nM.
Consider `C[C@@H](c1c[nH]c2cccc(F)c12)[C@@H]1NC(=O)[C@@H]2C[C@H](F)CN2C(=O)CNC(=O)[C@H](Cc2ccc(C(=O)O)cc2)NC(=O)[C@H](Cc2ccncc2)NC(=O)[C@H](Cc2ccc(-c3ccc(C(=O)O)cc3)cc2)NC(=O)[C@H]2[C@@H](Cc3ccncc3)CCN2C(=O)CNC(=O)[C@H](CCN)N(C)C(=O)[C@H](CCC(N)=O)NC(=O)[C@H](Cc2cncnc2)NC(=O)[C@@](C)(CC(=O)O)NC(=O)[C@H](Cc2c[nH]c3ccccc23)NC(=O)[C@H](CO)NC(=O)C(C)(C)NC1=O` [Example 235] (cyclo([Bip(4'-COOH)][4Pal][Phe(4-COOH)]G[Pro(cis-4-F)][Trp(βS-Me,4-F)][Aib]SW[d(αMeD)][Ala(pyrimidin-5-yl)]Q[NMeDab]G[X4])), for which the IC50 came out at 0.018 nM.
Take `C[C@@H](c1c[nH]c2cccc(F)c12)[C@@H]1NC(=O)[C@@H]2C[C@H](F)CN2C(=O)CNC(=O)[C@H](Cc2ccc(C(=O)O)cc2)NC(=O)[C@H](Cc2ccncc2)NC(=O)[C@H](Cc2ccc(-c3ccc(C(=O)O)cc3)cc2)NC(=O)[C@H]2[C@@H](Cc3ccncc3)CCN2C(=O)CNC(=O)[C@H](CCN)NC(=O)[C@H](CCC(N)=O)NC(=O)[C@@H](Cc2ccc(F)cc2)NC(=O)[C@@](C)(CC(=O)O)NC(=O)[C@H](Cc2c[nH]c3ccccc23)NC(=O)[C@H](CO)NC(=O)C(C)(C)NC1=O` [Example 236] (cyclo([Bip(4'-COOH)][4Pal][Phe(4-COOH)]G[Pro(cis-4-F)][Trp(βS-Me,4-F)][Aib]SW[d(αMeD)][dPhe(4-F)]Q[Dab]G[X4])): the IC50 came to 0.021 nM.
On to `C[C@@H](c1c[nH]c2cccc(F)c12)[C@@H]1NC(=O)[C@@H]2C[C@H](F)CN2C(=O)CNC(=O)[C@H](Cc2ccc(C(=O)O)cc2)NC(=O)[C@H](Cc2ccncc2)NC(=O)[C@H](Cc2ccc(-c3ccc(C(=O)O)cc3)cc2)NC(=O)[C@H]2[C@@H](Cc3ccncc3)CCN2C(=O)CNC(=O)[C@H](CCN)NC(=O)[C@H](CCC(N)=O)NC(=O)[C@@H](CC2CCCCC2)NC(=O)[C@@](C)(CC(=O)O)NC(=O)[C@H](Cc2c[nH]c3ccccc23)NC(=O)[C@H](CO)NC(=O)C(C)(C)NC1=O` [Example 237] (cyclo([Bip(4'-COOH)][4Pal][Phe(4-COOH)]G[Pro(cis-4-F)][Trp(βS-Me,4-F)][Aib]SW[d(αMeD)][dCha]Q[Dab]G[X4])), for which the IC50 is 0.025 nM.
For `CC(C)C[C@H]1NC(=O)[C@@](C)(CC(=O)O)NC(=O)[C@H](Cc2c[nH]c3ccccc23)NC(=O)[C@H](CO)NC(=O)C(C)(C)NC(=O)[C@H]([C@@H](C)c2c[nH]c3cccc(F)c23)NC(=O)[C@@H]2C[C@H](F)CN2C(=O)CNC(=O)[C@H](Cc2ccc(C(=O)O)cc2)NC(=O)[C@H](Cc2ccncc2)NC(=O)[C@H](Cc2ccc(-c3ccc(C(=O)O)cc3)cc2)NC(=O)[C@H]2[C@@H](Cc3ccncc3)CCN2C(=O)CNC(=O)[C@H](CCN)NC(=O)[C@H](CCC(N)=O)NC1=O` [Example 238] (cyclo([Bip(4'-COOH)][4Pal][Phe(4-COOH)]G[Pro(cis-4-F)][Trp(βS-Me,4-F)][Aib]SW[d(αMeD)][dL]Q[Dab]G[X4])) the value was 0.024 nM.
For `C[C@@H](c1c[nH]c2cccc(F)c12)[C@@H]1NC(=O)[C@@H]2C[C@H](F)CN2C(=O)CNC(=O)[C@H](Cc2ccc(C(=O)O)cc2)NC(=O)[C@H](Cc2ccncc2)NC(=O)[C@H](Cc2ccc(-c3ccc(C(=O)O)cc3)cc2)NC(=O)[C@H]2[C@@H](Cc3ccncc3)CCN2C(=O)CNC(=O)[C@H](CCN)NC(=O)[C@H](CCC(N)=O)NC(=O)[C@@H](CC2CCC2)NC(=O)[C@@](C)(CC(=O)O)NC(=O)[C@H](Cc2c[nH]c3ccccc23)NC(=O)[C@H](CO)NC(=O)C(C)(C)NC1=O` [Example 239] (cyclo([Bip(4'-COOH)][4Pal][Phe(4-COOH)]G[Pro(cis-4-F)][Trp(βS-Me,4-F)][Aib]SW[d(αMeD)][dCba]Q[Dab]G[X4])), the IC50 stood at 0.02 nM.
`C[C@@H](c1c[nH]c2cccc(F)c12)[C@@H]1NC(=O)[C@@H]2C[C@H](F)CN2C(=O)CNC(=O)[C@H](Cc2ccc(C(=O)O)cc2)NC(=O)[C@H](Cc2ccncc2)NC(=O)[C@H](Cc2ccc(-c3ccc(C(=O)O)cc3)cc2)NC(=O)[C@H]2[C@@H](Cc3ccncc3)CCN2C(=O)CNC(=O)[C@H](CCN)NC(=O)[C@H](CCC(N)=O)NC(=O)[C@@H](Cc2cccnc2)NC(=O)[C@@](C)(CC(=O)O)NC(=O)[C@H](Cc2c[nH]c3ccccc23)NC(=O)[C@H](CO)NC(=O)C(C)(C)NC1=O` [Example 240] (cyclo([Bip(4'-COOH)][4Pal][Phe(4-COOH)]G[Pro(cis-4-F)][Trp(βS-Me,4-F)][Aib]SW[d(αMeD)][d3Pal]Q[Dab]G[X4])): the IC50 came to 0.025 nM.
Take `C[C@@H](c1c[nH]c2cccc(F)c12)[C@@H]1NC(=O)[C@@H]2C[C@H](F)CN2C(=O)CNC(=O)[C@H](Cc2ccc(C(=O)O)cc2)NC(=O)[C@H](Cc2ccncc2)NC(=O)[C@H](Cc2ccc(-c3ccc(C(=O)O)cc3)cc2)NC(=O)[C@H]2[C@@H](Cc3ccncc3)CCN2C(=O)CNC(=O)[C@H](CCN)N(C)C(=O)[C@H](CCC(N)=O)NC(=O)[C@H](Cc2cncnc2)NC(=O)C(C)(C)NC(=O)[C@H](Cc2c[nH]c3ccccc23)NC(=O)[C@H](CO)NC(=O)C(C)(C)NC1=O` [Example 241] (cyclo([Bip(4'-COOH)][4Pal][Phe(4-COOH)]G[Pro(cis-4-F)][Trp(βS-Me,4-F)][Aib]SW[Aib][Ala(pyrimidin-5-yl)]Q[NMeDab]G[X4])): the IC50 turned out to be 0.018 nM.
On to `C[C@@H](c1c[nH]c2cccc(F)c12)[C@@H]1NC(=O)[C@@H]2C[C@H](F)CN2C(=O)CNC(=O)[C@H](Cc2ccc(C(=O)O)cc2)NC(=O)[C@H](Cc2ccncc2)NC(=O)[C@H](Cc2ccc(-c3ccc(C(=O)O)cc3)cc2)NC(=O)[C@H]2C[C@@H](Cc3ccncc3)CN2C(=O)CNC(=O)[C@H](CCN)NC(=O)[C@H](CCC(N)=O)NC(=O)[C@@H](CO)NC(=O)[C@@](C)(CC(=O)O)NC(=O)[C@H](Cc2c[nH]c3ccccc23)NC(=O)[C@H](CO)NC(=O)C(C)(C)NC1=O` [Example 242] (cyclo([Bip(4'-COOH)][4Pal][Phe(4-COOH)]G[Pro(cis-4-F)][Trp(βS-Me,4-F)][Aib]SW[d(αMeD)][dS]Q[Dab]G[dPro(4R-(4-pyridylmethyl))])), for which the IC50 amounted to 0.019 nM.
For `C[C@@H](c1c[nH]c2cccc(F)c12)[C@@H]1NC(=O)[C@@H]2C[C@H](F)CN2C(=O)CNC(=O)[C@H](Cc2ccc(C(=O)O)cc2)NC(=O)[C@H](Cc2ccncc2)NC(=O)[C@H](Cc2ccc(-c3ccc(C(=O)O)cc3)cc2)NC(=O)[C@H]2C[C@@H](Cc3ccncc3)CN2C(=O)CNC(=O)[C@H](CCN)NC(=O)[C@H](CCC(N)=O)NC(=O)[C@@H](Cc2ccccc2)NC(=O)[C@@](C)(CC(=O)O)NC(=O)[C@H](Cc2c[nH]c3ccccc23)NC(=O)[C@H](CO)NC(=O)C(C)(C)NC1=O` [Example 243] (cyclo([Bip(4'-COOH)][4Pal][Phe(4-COOH)]G[Pro(cis-4-F)][Trp(βS-Me,4-F)][Aib]SW[d(αMeD)][dF]Q[Dab]G[dPro(4R-(4-pyridylmethyl))])) the value was 0.022 nM; for `C[C@@H](c1c[nH]c2cccc(F)c12)[C@@H]1NC(=O)[C@@H]2C[C@H](F)CN2C(=O)CNC(=O)[C@H](Cc2ccc(C(=O)O)cc2)NC(=O)[C@H](Cc2ccncc2)NC(=O)[C@H](Cc2ccc(-c3ccccc3)cc2)NC(=O)[C@H]2C[C@@H](Cc3ccncc3)CN2C(=O)CNC(=O)[C@H](CNC(N)=O)NC(=O)[C@H](CCC(N)=O)NC(=O)[C@@H](CCCCN)NC(=O)[C@@](C)(CC(=O)O)NC(=O)[C@H](Cc2c[nH]c3ccccc23)NC(=O)[C@H](CO)NC(=O)C(C)(C)NC1=O` [Example 244] (cyclo([Bip][4Pal][Phe(4-COOH)]G[Pro(cis-4-F)][Trp(βS-Me,4-F)][Aib]SW[d(αMeD)][dK]Q[Dap(CONH2)]G[dPro(4R-(4-pyridylmethyl))])), 0.03 nM.
As to `C[C@@H](c1c[nH]c2cccc(F)c12)[C@@H]1NC(=O)[C@@H]2C[C@H](F)CN2C(=O)CNC(=O)[C@H](Cc2ccc(C(=O)O)cc2)NC(=O)[C@H](Cc2ccncc2)NC(=O)[C@H](Cc2ccc(-c3ccccc3)cc2)NC(=O)[C@H]2C[C@@H](Cc3ccncc3)CN2C(=O)CNC(=O)[C@H](CNC(N)=O)NC(=O)[C@H](CCC(N)=O)NC(=O)[C@@H](CCCN)NC(=O)[C@@](C)(CC(=O)O)NC(=O)[C@H](Cc2c[nH]c3ccccc23)NC(=O)[C@H](CO)NC(=O)C(C)(C)NC1=O` [Example 245] (cyclo([Bip][4Pal][Phe(4-COOH)]G[Pro(cis-4-F)][Trp(βS-Me,4-F)][Aib]SW[d(αMeD)][dOrn]Q[Dap(CONH2)]G[dPro(4R-(4-pyridylmethyl))])), the IC50 came to 0.027 nM.
`C[C@@H](c1c[nH]c2cccc(F)c12)[C@@H]1NC(=O)[C@@H]2C[C@H](F)CN2C(=O)CNC(=O)[C@H](Cc2ccc(C(=O)O)cc2)NC(=O)[C@H](Cc2ccncc2)NC(=O)[C@H](Cc2ccc(-c3ccccc3)cc2)NC(=O)[C@H]2C[C@@H](Cc3ccncc3)CN2C(=O)CNC(=O)[C@H](CNC(N)=O)NC(=O)[C@H](CCC(N)=O)NC(=O)[C@@H](CN)NC(=O)[C@@](C)(CC(=O)O)NC(=O)[C@H](Cc2c[nH]c3ccccc23)NC(=O)[C@H](CO)NC(=O)C(C)(C)NC1=O` [Example 246] (cyclo([Bip][4Pal][Phe(4-COOH)]G[Pro(cis-4-F)][Trp(βS-Me,4-F)][Aib]SW[d(αMeD)][dDap]Q[Dap(CONH2)]G[dPro(4R-(4-pyridylmethyl))])): the IC50 stood at 0.031 nM.
